This note sets out measurements from patent US20250206763A1, “ENPP1 INHIBITOR” (SHANGHAI QILU PHARMACEUTICAL RESEARCH AND DEVELOPMENT …, priority 2022, published 2025).

Each structure is given as a SMILES string.

Assay [1] has as its target T1, human ENPP1 (Homo sapiens, UniProt P22413).
T1 construct: purchased Biovendor AP-18-081; host or cells: HEK293
T1 sequence (P22413 1-925): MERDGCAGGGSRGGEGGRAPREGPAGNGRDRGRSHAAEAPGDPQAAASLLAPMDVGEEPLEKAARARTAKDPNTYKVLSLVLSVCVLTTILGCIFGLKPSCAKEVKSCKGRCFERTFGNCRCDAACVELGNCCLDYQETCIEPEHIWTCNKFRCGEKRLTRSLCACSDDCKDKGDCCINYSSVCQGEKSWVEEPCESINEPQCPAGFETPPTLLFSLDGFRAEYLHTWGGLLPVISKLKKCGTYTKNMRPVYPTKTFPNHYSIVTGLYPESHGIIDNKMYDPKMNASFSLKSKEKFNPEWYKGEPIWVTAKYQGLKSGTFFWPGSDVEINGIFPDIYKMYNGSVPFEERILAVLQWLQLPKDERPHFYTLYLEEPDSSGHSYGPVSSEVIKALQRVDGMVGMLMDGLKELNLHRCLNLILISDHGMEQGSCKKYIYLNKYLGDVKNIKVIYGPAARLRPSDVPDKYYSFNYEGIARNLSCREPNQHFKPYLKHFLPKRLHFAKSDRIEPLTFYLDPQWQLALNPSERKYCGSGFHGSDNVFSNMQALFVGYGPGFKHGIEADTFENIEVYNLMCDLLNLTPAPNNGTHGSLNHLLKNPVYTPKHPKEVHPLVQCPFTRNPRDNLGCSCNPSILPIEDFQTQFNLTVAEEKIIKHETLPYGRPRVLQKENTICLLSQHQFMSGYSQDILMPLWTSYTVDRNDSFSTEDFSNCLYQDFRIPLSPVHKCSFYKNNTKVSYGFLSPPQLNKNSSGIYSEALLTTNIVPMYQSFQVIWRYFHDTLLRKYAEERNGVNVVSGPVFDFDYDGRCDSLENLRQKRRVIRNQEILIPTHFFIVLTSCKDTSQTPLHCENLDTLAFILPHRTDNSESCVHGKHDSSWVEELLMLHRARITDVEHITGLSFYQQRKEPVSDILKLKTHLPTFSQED
Briefly: In vitro enzyme activity assay: human ENPP1 enzymatic assay (cGAMP), AMP-Glo. Type of assay: biochemical. Particulars: substrate cGAMP, AMP-Glo detection. Here is the method: AMP-Glo Assay Kit (PROMEGA, V5012), ENPP-1-IN-1 (MCE, HY-129490), white opaque 384-well plate (Perkin Elmer, 6008289), Mammalian (non-canonical) CDN, cyclic[g(2′,5′)pA(3′,5′)p](referred to as cGAMP hereinafter, Invivogen, tlrl-nacga23-5), ENPP1 Protein Human HEK293 (Biovendor, AP-18-081).
• 1) Preparing 1× reaction buffer (Tris buffer), 1× enzyme buffer, and 1× substrate buffer; • 2) diluting the compounds using Echo550 and supplementing with DMSO; • 3) pre-loading 2.5 μL of enzyme solution on a reaction plate (adding 2.5 μL of buffer instead as negative control) and incubating it at room temperature; • 4) adding 2.5 μL of substrate solution to the system and incubating it at room temperature; • 5) adding 5 μL of AMP-Glo solution that has been allowed to cooled down to room temperature, centrifuging and reacting at room temperature, • 6) adding 10 μL of AMP Detection solution at room temperature, centrifuging and reacting at room temperature; and • 7) reading the plate using EnVision.

For assay [2], the system named is MDA-MB-231 cells. Briefly: Cell Activity Test 1: pNP-AMP hydrolysis on MDA-MB-231 cells, absorbance at 405. The note with it: Homo sapiens, 1 hour pre-incubation, 0.25 mM pNP-AMP, 5 hours of reaction, read-out: MDA-MB-231 cell biochemical IC50. Type of assay: cell-based. Here is the method:
MDA-MB-231 cells were digested and suspended, the cell density was adjusted to 4.5×10^5 cells per milliliter, and the cells were seeded in 384 microtiter plates at 50 microliters per well. The cells were incubated in an incubator at 37° C. with […] for 24 h. After 24 h, the cell plates were taken out, the cell culture medium was pipetted and washed once with 50 μL of PBS. Then 20 μL of 1640 medium free of phenol red and serum was added per well, and 2× of compound was added with Tecan, with 1:3 dilution. The compounds were pre-incubated for 1 hour. Afterwards, the reaction was initiated by adding a substrate mixture (50 μL system, 0.5 mM pNP-AMP dissolved in 1640 medium free of phenol red and serum) at a final substrate concentration of 0.25 mM. Absorbance values were read at 405 nm in a microplate reader after 5 hours of reaction, 4-Parameter Logistic Curve model was applied to calculate the […] of the compounds, taking positive compounds as 100% inhibition and DMSO as 0% inhibition.

Assay [3] relates to MDA-MB-231 CM-THP1 (THP1-Dual Cells NF-κB-SEAP and IRF-Lucia luciferase Reporter Monocytes). The assay can be described thus: Cell Activity Test 2: MDA-MB-231 cells treated with compound and cGAMP, supernatant transferred to THP1-Dual IRF-Lucia luciferase reporter cells. Type of assay: cell-based. Particulars: 30 minutes pretreatment, cGAMP 24 hours, supernatant on THP1-Dual reporter cells 24 hours, QUANTI-Luc. The text has this: THP1-Dual Cells NF-κB-SEAP and IRF-Lucia luciferase Reporter Monocytes cells (Invivogen, thpd-nfis), MDA-MB-231 cells (ATCC, CRM-HTB-26), RPMI-1640 medium (Gibco, 11875-093), FBS (Gibco, 10099), penicillin-streptomycin (Gibco, 15070063), HEPES (ThermoFisher, 15630080), L-glutamine (ThermoFisher, 25030081), Normocin-Antimicrobial Reagent (InVivoGen, ant-nr-1), Zeocin (Invivogen, ant-zn-1), Blasticidin (Invivogen, ant-bl-1), Mammalian (non-canonical) CDN, cyclic [G(2′,5′)pA(3′,5′)p] (referred to as cGAMP hereinafter, Invivogen, tlrl-nacga23-1), QUANTI-Luc (InvivoGen, rep-qlc2), Multimode Plate Reader (PerkinElmer, EnVision 2105 Alpha 680 nm Laser), and conventional cell culture consumables (NEST). […]
An appropriate amount of MDA-MB-231 cells in logarithmic growth phase was taken and centrifuged at 300×g for 5 minutes, and the supernatant was removed. The cells were re-suspended with MDA-MB-231 cell growth medium and counted, and the cell density was adjusted to 6×10^4 cells/mL. […]
After 24 hours, the resulting was centrifuged at 300×g for 5 minutes, 10 μL of cell supernatant was transferred to a new 384-well plate with a white opaque bottom, followed by the addition of 25 μL of QUANTI-Luc reaction solution to each well. They were shaken well for 1 minute away from light and the plate was read immediately.

What is called IC50 is the midpoint of a concentration-inhibition curve. In general, EC50 refers to the concentration at which the effect is half-maximal.

For the compound `O=c1[nH]c2cnc3c4c(ccc3c2n1Cc1ccc(P(=O)(O)O)c(F)c1)OCO4` [Compound 1, (2-fluoro-4-((7-oxo-6,7-dihydro-8H-[1,3]dioxolo[4,5-h]imidazo[4,5-c]quinolin-8-yl)methyl)phenyl)phosphonic add], the IC50 in assay [1] is below 10 nM; in assay [2] it was 1.12 nM. In addition, in assay [3], the EC50 is 3.5 nM.
Compound `COc1cc(Cn2c(=O)[nH]c3cnc4c5c(ccc4c32)OCO5)ccc1P(=O)(O)O` [Compound 49] showed an IC50 in assay [1] below 10 nM.
`O=c1n(Cc2ccc(P(=O)(O)O)c(F)c2)c2c3ccc4c(c3ncc2n1C(F)F)OCO4` [Compound 51]: in assay [1], the IC50 is below 10 nM.
`O=c1n(Cc2ccc(P(=O)(O)O)c(F)c2)c2c3ccc4c(c3ncc2n1-c1ccccc1)OCO4` [Compound 52]: in assay [1], the IC50 is below 10 nM.
For `CN(C)CCn1c(=O)n(Cc2c(F)cc(S(N)(=O)=O)cc2F)c2c3ccc4c(c3ncc21)OCO4` [Compound 53], the IC50 in assay [1] is below 10 nM.
The same measure, in the same setting: in the case of `Cc1nc2cnc3c4c(ccc3c2n1Cc1ccc(P(=O)(O)O)c(F)c1)OCO4` [Compound 54, (2-fluoro-4-((7-methyl-8H-[1,3]dioxolo[4,5-h]imidazo[4,4-c]quinolin-8-yl)methyl)phenyl)phosphonic acid] it was below 10 nM; in that of `COc1cc2c(ncc3[nH]c(=O)n(Cc4ccc(P(=O)(O)O)c(F)c4)c32)c2c1OCO2` [Compound 55], below 10 nM.
On the same count and under the same terms, in the case of `Cn1c(=O)n(Cc2ccc(P(=O)(O)O)c(F)c2)c2c3cn[nH]c3ncc21` [Compound 60] it was below 10 nM; in that of `O=c1[nH]c2cnc3c4c(ccc3c2n1Cc1ccc(P(=O)(O)O)c(OCc2ccccc2)c1)OCO4` [Compound 61], below 10 nM.
Same read-out and setting: the result for `NS(=O)(=O)c1cnc(Cn2c(=O)[nH]c3cnc4c5c(ccc4c32)OCO5)c(F)c1` [Compound 63] reads below 10 nM.
Regarding `COc1ccc2c(ncc3[nH]c(=O)n(Cc4ccc(P(=O)(O)O)c(F)c4)c32)n1` [Control Compound, reference compound], the IC50 in assay [2] came out at 9.78 nM. Besides, the EC50 in assay [3] came out at 14.6 nM.
